Results: ChEMBL document CHEMBL4814075, “Novel Thienopyrimidines as Acetyl-CoA Carboxylase Inhibitors for Treating Liver Diseases” (ACS Med Chem Lett, 2021)

What follows are compounds tested against Acetyl-CoA carboxylase 1 (Homo sapiens, UniProt Q13085) (assay: Inhibition of ACC1 in human HepG2 cells assessed as lipid content using 13C-labelled acetate as substrate incubated for 1 hr followed by substrate addition and measured after 24 hrs by QTOF mass spectrometer).
Assay type: cell-based
`COc1ccccc1[C@H](Cn1c(=O)n(C(C)(C)C(=O)NS(=O)(=O)C2(C)CC2)c(=O)c2c(C)c(-n3nccn3)sc21)O[C@@H]1C[C@H]2CC[C@@H](C1)O2` gave an EC50 of 1 nM. Work on `COc1ccccc1[C@H](Cn1c(=O)n(C2(C(=O)NS(=O)(=O)C3(C)CC3)CC2)c(=O)c2c(C)c(-n3nccn3)sc21)O[C@@H]1C[C@H]2CC[C@@H](C1)O2` yielded an EC50 of 1 nM. Work on `Cc1c(-n2nccn2)sc2c1c(=O)n(C1(C(=O)NS(=O)(=O)C3(C)CC3)CC1)c(=O)n2C[C@H](O[C@@H]1C[C@H]2CC[C@@H](C1)O2)c1cc(F)ccc1OC(F)F` yielded an EC50 of 0.9 nM. Work on `COc1ccccc1[C@H](Cn1c(=O)n([C@H](C)C(=O)NS(=O)(=O)C2(C)CC2)c(=O)c2c(C)c(-c3ncco3)sc21)O[C@@H]1C[C@H]2CC[C@@H](C1)O2` yielded an EC50 of 1 nM. `COc1ccccc1[C@H](Cn1c(=O)n(C(C)(C)C(=O)NS(=O)(=O)C2(C)CC2)c(=O)c2c(C)c(-c3ncco3)sc21)O[C@@H]1C[C@H]2CC[C@@H](C1)O2` showed an EC50 of 1 nM. Compound `COc1ccc(F)cc1[C@H](Cn1c(=O)n(C(C)(C)C(=O)NS(=O)(=O)C2(C)CC2)c(=O)c2c(C)c(-n3nccn3)sc21)O[C@@H]1C[C@H]2CC[C@@H](C1)O2` has an EC50 of 0.3 nM.
